According to US10322104B2, “Disulfur bridge linkers for conjugation of a cell-binding molecule” (Suzhou M-Conj Biotech Co., Ltd., priority 2015, dated 2019):

Columns and labels:
[1] = tested on: NCI-N87, a human gastric carcinoma cell line (Ag+); experiment: In vitro cytotoxicity (MTT), N87 cells; format: cell-based
Procedure: (§1) The cell lines used in the cytotoxicity assays were HL-60, a human promyelocytic leukemia cell line; NCI-N87, a human gastric carcinoma cell line; and SKOV3, a human ovarian carcinoma cell line. For HL-60, and NCI-N87, the cells were grown in RPMI-1640 with 10% FBS. For SKOV3 cells, the cells were grown in McCoy's 5A Medium with 10% FBS. To run the assay, the cells (180 μl, 6000 cells) were added to each well in a 96-well plate and incubated for 24 hours at 37° C. with 5% CO2. Next, the cells were treated with test compounds (20 μl) at various concentrations in appropriate cell culture medium (total volume, 0.2 mL). The control wells contain cells and the medium but lack the test compounds. The plates were incubated for 120 hours at 37° C. with 5% CO2. MTT (5 mg/ml) was then added to the wells (20 μl) and the plates were incubated for 1.5 hr at 37° C. The medium was carefully removed and DMSO (180 μl) was added afterward. After it was shaken for 15 min, the absorbance was measured at 490 nm and 570 nm with a reference filter of 620 nm. The inhibition % was calculated according to the following equation: inhibition %=[1−(assay-blank)/(control-blank)]×100.

[2] = tested on: SKOV3, a human ovarian carcinoma cell line (Ag+); experiment: In vitro cytotoxicity (MTT), SK-OV-3 cells; format: cell-based
Procedure: as §1

[3] = tested on: HL-60, a human promyelocytic leukemia cell line (Ag−); experiment: In vitro cytotoxicity (MTT), HL-60 cells; format: cell-based; conditions: 120 hours incubation, read-out: IC50 (nM) HL60 cell (Ag−)
Procedure: as §1

[4] = tested on: human gastric carcinoma N-87 cell line tumor xenograft; experiment: Antitumor activity in vivo, N-87 tumor xenograft; set-up: species or system female BALB/c Nude mice; conditions: one injection
Procedure: Five-week-old female BALB/c Nude mice (30 animals) were inoculated subcutaneously in the area under the right shoulder with N-87 carcinoma cells (5×10^6 cells/mouse) in 0.1 mL of serum-free medium. The tumors were grown for 8 days to an average size of 136 mm^3. The animals were then randomly divided into 5 groups (6 animals per group). The first group of mice served as the control group and was treated with the phosphate-buffered saline vehicle. […] Three dimensions of the tumor were measured every 4 days and the tumor volumes were calculated using the formula tumor volume=½ (length×width×height). The weight of the animals was also measured at the same time. A mouse was sacrificed when any one of the following criteria was met: (1) loss of body weight of more than 20% from pretreatment weight, (2) tumor volume larger than 1500 mm^3, (3) too sick to reach food and water, or (4) skin necrosis. A mouse was considered to be tumor-free if no tumor was palpable.

[5] = relative to HL60 cell (Ag−) IC50

Substance: T-DM1
- IC50 ([1]; MTT, 120 hours incubation): 0.266 nM
- Specificity for N87 cell [1, 5]: over 56
- IC50 ([2]; MTT, 120 hours incubation): 0.177 nM
- Specificity for SK-OV-3 cell [2, 5]: over 84
- IC50 [3]: > 15 nM
- animals with no tumor measurable ([4]; 5 mg/Kg i.v., at days 13 and 21 until day 37 and 45, 6 animals per group): 2/6
- duration of tumor growth inhibition ([4]; 5 mg/kg, i.v.): about 44 days
- anti-tumor effect (FIG. 12) ([4]; 5 mg/kg, i.v., day 13˜21 till day 60 (the end of experiment)): did not completely eliminate the tumor
